Reference: US6747027B1, “Thiol sulfonamide metalloprotease inhibitors” (Pharmacia Corporation, priority 1996, dated 2004)
pIC50: −log10 of the molar value.

Molecular target: T1, recombinant human MMP-13 (Homo sapiens, UniProt P45452)
T1 construct: made in house
Assay: In vitro metalloprotease inhibition, fluorogenic peptide assay (MMP-13)
Type: biochemical
Settings: recombinant human MMP-13, APMA activated; fluorogenic MCA peptide substrate 4 uM; pH 7.5, room temperature
Procedure: Certain of the compounds prepared in the manner described in Examples 1 to 223 were tested for activity by an in vitro assay. Following the procedures of Knight et al., FEBS Lett. 296(3):263 (1992). Briefly, 4-aminophenylmercuric acetate (APMA) or trypsin activated MMPs were incubated with various concentrations of the inhibitor compound at room temperature for 5 minutes (0.02% 2-mercapto-ethanol added to buffer for thiol compounds with 5 minutes or overnight incubation). More specifically, recombinant human MMP-13 and MMP-1 enzymes were prepared in laboratories of the inventors' employer. MMP-13 was expressed in baculovirus as a proenzyme, and purified first over a heparin agarose column and then over a chelating zinc chloride column. The proenzyme was activated by APMA for use in the assay. MMP-1 expressed in transfected HT-1080 was provided by Dr. Howard Welgus of Washington University, St. Louis, Mo. The enzyme was also activated using APMA and was then purified over a hydroxamic acid column.
The enzyme substrate is a methoxycoumarin-containing polypeptide having the following sequence:
MCA-ProLeuGlyLeuDpaAlaArgNH^2, wherein MCA is methoxycoumarin and Dpa is 3-(2,4-dinitrophenyl)-L-2,3-diaminopropionyl alanine. This substrate is commercially available from Baychem as product M-1895.
The buffer used for assays contained 100 mM Tris-HCl, 100 mM NaCl, 10 mM CaCl2 and 0.05 percent polyethyleneglycol(23) lauryl ether at a pH value of 7.5. Assays were carried out at room temperature, and dimethyl sulfoxide (DMSO) at a final concentration of 1 percent was used to dissolve inhibitor compound.
The assayed inhibitor compound in DMSO/buffer solution was compared to an equal amount of DMSO/buffer with no inhibitor as control using microfluor™ white plates (Dynatech). The inhibitor or control solution was maintained in the plate for 10 minutes and the substrate was added to provide a final concentration of 4 uM.
In the absence of inhibitor activity, a fluorogenic peptide is cleaved at the gly-leu peptide bond, separating the highly fluorogenic peptide from a 2.4-dinitrophenyl quencher, resulting in an increase of fluorescence intensity (excitation at 328 nm/emmision at 415 nm). Inhibition was measured as a reduction in fluorescent intensity as a function of inhibitor concentration, using a Perkin Elmer L550 plate reader. The IC50 values were calculated from those values. The results are set forth in the Inhibition Table below, reported in terms of IC50 to three significant figures.

Row | SMILES | pIC50
1 | COc1ccc(S(=O)(=O)N(Cc2ccccc2)CC(C)S)cc1 (stereo not drawn) [Example 10] | 6.26
2 | C[C@H](CS)NS(=O)(=O)c1ccc(Cl)cc1 [Example 64, N-(2-mercapto-1R-methylethyl)-4-chlorobenzenesulfonamide] | 6.05
3 | C[C@H](CS)NS(=O)(=O)c1ccc(I)cc1 [Example 66, N-(2-mercapto-1R-methylethyl)-4-iodobenzenesulfonamide] | 7.42
4 | CCc1ccc(S(=O)(=O)N[C@H](C)CS)cc1 [Example 67, N-(2-mercapto-1R-methylethyl)-4-ethylbenzenesulfonamide] | 6.24
5 | CC(C)c1ccc(S(=O)(=O)N[C@H](C)CS)cc1 [Example 72, N-(2-mercapto-1R-methylethyl)-4-isopropylbenzenesulfonamide] | 5.64
6 | C[C@H](CS)NS(=O)(=O)c1ccc(C(F)(F)F)cc1 [Example 73, N-(2-mercapto-1R-methylethyl)-4-(trifluoromethyl)-benzenesulfonamide] | 5.68
7 | C[C@H](CS)NS(=O)(=O)c1ccc(C(C)(C)C)cc1 [Example 74, N-(2-mercapto-1R-methylethyl)-4-(t-butyl)benzenesulfonamide] | < 5.00
8 | Cc1cc(C)c(S(=O)(=O)N[C@H](C)CS)c(C)c1 [Example 79, N-(2-mercapto-1R-methylethyl)-2,4,6-trimethyl-benzenesulfonamide] | < 5.00
9 | CC(C)c1cc(C(C)C)c(S(=O)(=O)N[C@H](C)CS)c(C(C)C)c1 [Example 80, N-(2-mercapto-1R-methylethyl)-2,4,6-triisopropyl-benzenesulfonamide] | < 5.00
10 | C[C@H](CS)NS(=O)(=O)c1ccc(F)c(F)c1 [Example 81, N-(2-mercapto-1R-methylethyl)-3,4-difluoro-benzenesulfonamide] | 5.19
11 | C[C@H](CS)NS(=O)(=O)c1ccc(Br)s1 [Example 85, N-(2-mercapto-1R-methylethyl)-5-bromo-2-thiophenesulfonamide] | 5.05
12 | C[C@H](CS)NS(=O)(=O)c1ccc(Cl)s1 [Example 86, N-(2-mercapto-1R-methylethyl)-5-chloro-2-thiophenesulfonamide] | 5.77
13 | C[C@H](CS)NS(=O)(=O)c1sc(Br)cc1Br [Example 87, N-(2-mercapto-1R-methylethyl)-3,5-dibromo-2-thiophenesulfonamide] | 5.07
14 | C[C@H](CS)NS(=O)(=O)c1ccc(-c2ccon2)s1 [Example 88, N-(2-mercapto-1R-methylethyl)-5-(isoxazol-3-yl)-2-thiophenesulfonamide] | 6.44
15 | C[C@H](CS)NS(=O)(=O)c1ccc2oc3ccccc3c2c1 [Example 90, N-(2-mercapto-1R-methylethyl)-2-dibenzofuransulfonamide] | 6.22
16 | COc1ccc(S(=O)(=O)N(CCCS)Cc2ccccc2)cc1 [Example 97] | 5.40

The remaining lines, values ahead:

Row | pIC50 | SMILES
17 | < 5.00 | C[C@H](CS)NS(=O)(=O)c1ccccc1 (single isomer, unassigned) [Example 151]
18 | < 5.00 | COc1ccc(S(=O)(=O)N(CCCSC(C)=O)Cc2ccccc2)cc1 [Example 98]
19 | < 5.00 | C[C@H](CS)NS(=O)(=O)c1ccc(OCC(F)(F)F)cc1OCC(F)(F)F [Example 104]
20 | 5.46 | CCCCCCCCCCCCCCCCOc1ccc(S(=O)(=O)N[C@H](C)CS)cc1 [Example 105]
21 | 6.30 | C[C@H](CS)NS(=O)(=O)c1ccc(Oc2cccc(Cl)c2C#N)cc1 [Example 108]
22 | < 5.00 | COc1ccc(S(=O)(=O)N[C@H](C)CS)c([N+](=O)[O-])c1 [Example 109]
23 | < 5.00 | C[C@H](CS)NS(=O)(=O)c1ccc(CNC(=O)c2ccccc2)s1 [Example 146]
24 | < 5.00 | C[C@H](CS)NS(=O)(=O)c1ccc(C(F)(F)F)cn1 [Example 148]
25 | < 5.00 | C[C@H](CS)NS(=O)(=O)c1cc(C(F)(F)F)n(C)n1 [Example 149]
26 | 5.05 | CSc1nccc(S(=O)(=O)N[C@H](C)CS)n1 [Example 150]
27 | 5.52 | C[C@H](CS)NS(=O)(=O)c1cc(Br)c(Cl)s1 [Example 152]
